# Results reported in ChEMBL document CHEMBL1212931, “Identification of a naturally occurring rexinoid, honokiol, that activates the retinoid X receptor” (J Nat Prod, 2010).
# pEC50: −log10 of the molar value. Activity calls are given as the source filed them. No cut-off for these calls is given here.
# What was measured:
# RAW264.7 [1] = experiment: Activation of RXR/LXR heterodimer in mouse RAW264.7 cells assessed as induction of ABCA1 mRNA expression by RT-PCR; type: cell-based
# [2] = target: T1, Retinoic acid receptor RXR-alpha (Mus musculus) (UniProt P28700); experiment: Agonist activity at RXRalpha in mouse peritoneal macrophages assessed as ApoAI-mediated cholesterol efflux after 24 hrs […]; type: functional
# T1 sequence (whole entry): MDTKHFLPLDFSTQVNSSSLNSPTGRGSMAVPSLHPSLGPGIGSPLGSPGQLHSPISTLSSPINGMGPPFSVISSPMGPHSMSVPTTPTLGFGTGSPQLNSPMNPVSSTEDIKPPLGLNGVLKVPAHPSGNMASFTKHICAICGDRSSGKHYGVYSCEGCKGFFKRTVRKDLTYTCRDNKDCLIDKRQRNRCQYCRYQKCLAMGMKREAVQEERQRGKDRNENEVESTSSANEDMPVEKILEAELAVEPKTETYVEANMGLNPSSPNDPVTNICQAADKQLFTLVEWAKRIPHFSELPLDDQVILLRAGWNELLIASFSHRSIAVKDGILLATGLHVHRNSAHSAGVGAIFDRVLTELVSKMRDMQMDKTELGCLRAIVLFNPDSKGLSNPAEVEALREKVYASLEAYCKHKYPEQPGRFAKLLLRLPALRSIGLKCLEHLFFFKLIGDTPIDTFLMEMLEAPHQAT
# [3] = target: T2, Retinoic acid receptor RXR-alpha (Homo sapiens) (UniProt P19793); experiment: Binding affinity to RXRalpha
# T2 sequence (whole entry): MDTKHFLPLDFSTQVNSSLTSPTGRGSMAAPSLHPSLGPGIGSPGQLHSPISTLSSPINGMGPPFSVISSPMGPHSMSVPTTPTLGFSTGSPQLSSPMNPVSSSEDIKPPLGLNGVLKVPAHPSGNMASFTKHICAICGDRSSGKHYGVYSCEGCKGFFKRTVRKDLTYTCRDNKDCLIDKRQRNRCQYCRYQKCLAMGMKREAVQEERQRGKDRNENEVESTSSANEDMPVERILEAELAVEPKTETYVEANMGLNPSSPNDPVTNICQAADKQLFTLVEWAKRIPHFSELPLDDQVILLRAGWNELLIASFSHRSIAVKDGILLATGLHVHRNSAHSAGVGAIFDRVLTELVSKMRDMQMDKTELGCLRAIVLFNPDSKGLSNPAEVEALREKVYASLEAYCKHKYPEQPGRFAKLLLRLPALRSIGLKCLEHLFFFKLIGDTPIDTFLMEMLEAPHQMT
# [4] = target: T3, Retinoic acid receptor RXR-alpha (Homo sapiens, UniProt P19793); experiment: Agonist activity at RXRalpha in HEK293 cells assessed as transcriptional activation after 48 hrs by luciferase reporter gene assay; type: functional, cell-based
# T3 sequence (P19793 whole entry): T2 sequence (whole entry)
# [5] = target: T4, Oxysterols receptor LXR-alpha (Homo sapiens) (UniProt Q13133); experiment: Agonist activity at LXRalpha in HEK293 cells assessed as transcriptional activation after 48 hrs by luciferase reporter gene assay; type: functional, cell-based
# T4 sequence (whole entry): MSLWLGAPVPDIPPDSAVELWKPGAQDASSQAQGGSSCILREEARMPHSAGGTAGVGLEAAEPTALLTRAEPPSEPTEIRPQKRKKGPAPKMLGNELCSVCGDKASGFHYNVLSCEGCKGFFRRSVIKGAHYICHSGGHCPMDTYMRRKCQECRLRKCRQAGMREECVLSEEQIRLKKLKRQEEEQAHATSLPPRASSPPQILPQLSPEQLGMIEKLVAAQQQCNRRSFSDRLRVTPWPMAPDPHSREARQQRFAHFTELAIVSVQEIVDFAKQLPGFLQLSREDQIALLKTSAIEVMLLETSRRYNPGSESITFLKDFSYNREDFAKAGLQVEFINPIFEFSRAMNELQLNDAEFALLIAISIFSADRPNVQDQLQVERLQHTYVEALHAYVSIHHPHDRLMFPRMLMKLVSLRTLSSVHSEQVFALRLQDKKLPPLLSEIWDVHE
# RAW264.7 [6] = experiment: Activation of RXR/LXR heterodimer in mouse RAW264.7 cells assessed as induction of ABCG1 mRNA expression by RT-PCR in presence of 22(R)-hydroxycholesterol; type: cell-based
# RAW264.7 [7] = experiment: Activation of RXR/LXR heterodimer in mouse RAW264.7 cells assessed as induction of ABCG1 mRNA expression by RT-PCR RXR antagonist HX531; type: functional, cell-based
# [8] = target: T5, Peroxisome proliferator-activated receptor delta (Homo sapiens) (UniProt Q03181); experiment: Agonist activity at PPARdelta in HEK293 cells assessed as transcriptional activation after 48 hrs by luciferase reporter gene assay; type: functional, cell-based
# T5 sequence (whole entry): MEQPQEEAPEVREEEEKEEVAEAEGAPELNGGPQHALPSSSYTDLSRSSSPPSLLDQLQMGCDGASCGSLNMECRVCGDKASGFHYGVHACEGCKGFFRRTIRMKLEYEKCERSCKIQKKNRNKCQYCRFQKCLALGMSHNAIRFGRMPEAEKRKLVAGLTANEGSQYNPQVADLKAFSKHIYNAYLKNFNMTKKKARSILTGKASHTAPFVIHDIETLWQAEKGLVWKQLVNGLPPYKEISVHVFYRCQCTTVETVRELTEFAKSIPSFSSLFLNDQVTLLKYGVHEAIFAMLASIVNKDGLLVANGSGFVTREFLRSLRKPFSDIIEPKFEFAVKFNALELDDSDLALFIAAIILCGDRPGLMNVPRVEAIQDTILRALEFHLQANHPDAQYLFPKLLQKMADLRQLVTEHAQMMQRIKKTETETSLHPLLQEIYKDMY
# [9] = target: T1, Retinoic acid receptor RXR-alpha (Mus musculus); experiment: Agonist activity at RXRalpha in mouse peritoneal macrophages assessed as ApoAI-mediated cholesterol efflux in presence of 22(R)-hydroxycholesterol after 24 hrs […]; type: functional
# RAW264.7 [10] = experiment: Activation of RXR/LXR heterodimer in mouse RAW264.7 cells assessed as induction of ABCG1 mRNA expression by RT-PCR in presence of RXR antagonist HX531; type: functional, cell-based
# RAW264.7 [11] = experiment: Activation of RXR/LXR heterodimer in mouse RAW264.7 cells assessed as induction of ABCG1 mRNA expression by RT-PCR; type: cell-based
# [12] = target: T6, Peroxisome proliferator-activated receptor gamma (Homo sapiens) (UniProt P37231); experiment: Agonist activity at PPARgamma in HEK293 cells assessed as transcriptional activation after 48 hrs by luciferase reporter gene assay; type: functional, cell-based
# T6 sequence (whole entry): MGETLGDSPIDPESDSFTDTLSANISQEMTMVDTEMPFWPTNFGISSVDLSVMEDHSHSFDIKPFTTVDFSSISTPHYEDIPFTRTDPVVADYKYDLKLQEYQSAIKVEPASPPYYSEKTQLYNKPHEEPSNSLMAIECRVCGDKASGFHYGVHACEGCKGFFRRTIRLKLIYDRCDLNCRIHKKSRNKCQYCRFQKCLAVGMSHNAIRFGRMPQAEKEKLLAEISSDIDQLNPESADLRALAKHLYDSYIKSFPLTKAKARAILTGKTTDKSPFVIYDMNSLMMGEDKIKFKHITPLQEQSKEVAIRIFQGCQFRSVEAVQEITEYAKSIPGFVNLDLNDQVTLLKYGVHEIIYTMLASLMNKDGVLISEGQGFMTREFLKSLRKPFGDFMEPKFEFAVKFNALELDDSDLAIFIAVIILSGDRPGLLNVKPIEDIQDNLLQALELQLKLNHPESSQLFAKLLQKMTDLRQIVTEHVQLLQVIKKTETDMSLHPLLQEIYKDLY
Activity [2],Activity [3],Compound,Activity (RAW264.7 [1]),also measured
Active,–,C=C(c1ccc(C(=O)O)cc1)c1cc2c(cc1C)C(C)(C)CCC2(C)C,Dose-dependent effect,–
–,Active,CC(C)CCC[C@@H](C)CCC[C@@H](C)CCCC(C)CC(=O)O (stereo partly drawn),–,–
–,Active,CC/C=C\C/C=C\C/C=C\C/C=C\C/C=C\C/C=C\CCC(=O)O,–,–
Active,Active,C=CCc1ccc(O)c(-c2ccc(O)c(CC=C)c2)c1 [HONOKIOL],Dose-dependent effect,pEC50 [4]: 4.93; Activity [5]: inactive; Activity (RAW264.7 [6]): Active; Activity (RAW264.7 [7]): inactive; Activity [8]: inactive; Activity [9]: inactive; Activity (RAW264.7 [10]): inactive; Activity (RAW264.7 [11]): Active; Activity [12]: inactive

Compound,Activity [2],Activity [3],Activity (RAW264.7 [1]),also measured
CC(C)CC[C@@H](O)[C@@H](C)[C@H]1CC[C@H]2[C@@H]3CC=C4C[C@@H](O)CC[C@]4(C)[C@H]3CC[C@]12C,Active,–,Dose-dependent effect,–
